Reference: patent publication US20060046968A1, “Prodrug substituted benzoxazoles as estrogenic agents” (priority 2004, published 2006)
Marks after values point to notes of the source that are not given here.

Tests used:
Assay type in all cases: in vivo
Male HLA-B27 rats [1] = experiment: HLA-B27 rat test for inflammatory bowel disease: histological scoring of colon; conditions: for Fibrosis (0-2) / Inflammation (0-3) / Lesion depth (0-2) / Total score / Ulceration (0-2): colon histology
Male HLA-B27 rats [2] = experiment: HLA-B27 rat model of arthritis: joint scores; conditions: Study 1, oral 20 mg/kg once per day (10 mg/kg earlier)
Male HLA-B27 rats [3] = experiment: HLA-B27 rat model of arthritis: joint histology; conditions: Study 1; oral 46 days; 10 mg/kg days 1-24, then 20 mg/kg
Experimental: At the end of the study, the rats are euthanized with CO2, hindlimbs removed at necropsy and fixed in 10% buffered formalin, and the tarsal joints decalcified and embedded in paraffin. Histologic sections are stained with Hematoxylin and Eosin or […] Green stain. Slides are coded so that the examiner is blinded to the treatment groups. Synovial tissue from tarsal joints is evaluated based on synovial hyperplasia, inflammatory cell infiltration, and pannus formation [Poole and Coombs, International Archives of Allergy & Applied Immunology 54: 97-113 (1977)], as outlined below. [table] […] [table] Representative metabolites of compounds of the invention were evaluated in the HLA-B27 rat standard pharmacological test procedure, which emulates arthritis in humans. The following briefly describes the procedure used and results obtained. Male HLA-B27 rats were obtained from Taconic and provided unrestricted access to a food (PMI® LabDiet 5001) and water. Joint scores and histology were evaluated as described above for the Lewis rat model of adjuvant-induced arthritis. Study 1: […]

Lewis rats = experiment: Lewis rat adjuvant-induced arthritis, inhibition protocol: joint score (maximal score per day 12)
[4] = tested on: ovariectomized Sprague-Dawley rats; experiment: Bone mineral density in the ovariectomized rat (pQCT, proximal tibia); conditions: compound 10 mg/kg s.c.; 5 weeks
[5] = tested on: Sexually immature 129 SvE mice; experiment: Mouse uterotrophic test procedure (Procedure 2); conditions: compound 50 mg/kg s.c., days 22-25
[6] = tested on: Sexually immature Sprague-Dawley rats; experiment: Rat uterotrophic test procedure (Procedure 1); conditions: compound 2 mg/rat + 17α-ethinyl, 17β-estradiol 0.06 μg/rat s.c. (antagonist mode)

C=Cc1cc(O)cc2nc(-c3ccc(O)c(F)c3)oc12 [Example 24, 2-(3-FLUORO-4-HYDROXYPH ENYL)-7-VI NYL-1,3-BENZOXAZOL-5-OL]
Ulceration (0-2), mean ± SD (Male HLA-B27 rats [1]; Study C, oral 7 weeks, 10 mg/kg days 1-24, then 20 mg/kg): 0* | Fibrosis (0-2) (Male HLA-B27 rats [1]; 1 mg/kg s.c., second study): 0.75 | Inflammation (0-3) (Male HLA-B27 rats [1]; 1 mg/kg s.c., second study): 1.63* | Lesion depth (0-2) (Male HLA-B27 rats [1]; 1 mg/kg s.c., second study): 0.88* | Total score (Male HLA-B27 rats [1]; 1 mg/kg s.c., second study): 4.4* | Ulceration (0-2) (Male HLA-B27 rats [1]; 1 mg/kg s.c., second study): 1.25 | Fibrosis (0-2) (Male HLA-B27 rats [1]; 10 mg/kg s.c., second study): 0.50* | Inflammation (0-3) (Male HLA-B27 rats [1]; 10 mg/kg s.c., second study): 1.63* | Lesion depth (0-2) (Male HLA-B27 rats [1]; 10 mg/kg s.c., second study): 0.69* | Total score (Male HLA-B27 rats [1]; 10 mg/kg s.c., second study): 3.6* | Ulceration (0-2) (Male HLA-B27 rats [1]; 10 mg/kg s.c., second study): 0.81* | Fibrosis (0-2) (Male HLA-B27 rats [1]; 50 mg/kg s.c.): 0* | Inflammation (0-3) (Male HLA-B27 rats [1]; 50 mg/kg s.c.): 1.05*# | Lesion depth (0-2) (Male HLA-B27 rats [1]; 50 mg/kg s.c.): 0.2# | Total score (Male HLA-B27 rats [1]; 50 mg/kg s.c.): 1.5*# | Ulceration (0-2) (Male HLA-B27 rats [1]; 50 mg/kg s.c.): 0.25*# | Measurements of tissue injury, colon histology (Male HLA-B27 rats [1]; composite of two subcutaneous dosing studies): effective in reducing several measurements of tissue injury | Joint inflammation score (Male HLA-B27 rats [2]; Day 29): 1.5 | Joint inflammation score (Male HLA-B27 rats [2]; Day 30): 0.5 | Joint inflammation score (Male HLA-B27 rats [2]; Day 31): 0.5 | Joint inflammation score (Male HLA-B27 rats [2]; Day 32): 1.25 | Joint inflammation score (Male HLA-B27 rats [2]; Day 33): 2 | Joint inflammation score (Male HLA-B27 rats [2]; Day 34): 2.25 | Joint inflammation score (Male HLA-B27 rats [2]; Day 35): 2 | Joint inflammation score (Male HLA-B27 rats [2]; Day 36): 2.25 | Joint inflammation score (Male HLA-B27 rats [2]; Day 37): 2 | Joint inflammation score (Male HLA-B27 rats [2]; Day 38): 2.75 | Joint inflammation score (Male HLA-B27 rats [2]; Day 39): 2.25 | Joint inflammation score (Male HLA-B27 rats [2]; Day 40): 1.75 | Joint inflammation score (Male HLA-B27 rats [2]; Day 41): 2 | Joint inflammation score (Male HLA-B27 rats [2]; Day 42): 2.5 | Joint inflammation score (Male HLA-B27 rats [2]; Day 43): 4.75 | Joint inflammation score (Male HLA-B27 rats [2]; Day 44): 3 | Joint inflammation score (Male HLA-B27 rats [2]; Day 45): 2.75 | Joint inflammation score (Male HLA-B27 rats [2]; Day 46): 3.25 | Mankin score (mean ± SD) (Male HLA-B27 rats [3]): 3.5 ± 1.8 | Synovitis score (mean ± SD) (Male HLA-B27 rats [3]): 3.17 ± 0.3 | Joint inflammation score (Lewis rats; s.c. daily from Day 1, Day 1): 0.00 | Joint inflammation score (Lewis rats; s.c. daily from Day 1, Day 2): 1.00 | Joint inflammation score (Lewis rats; s.c. daily from Day 1, Day 3): 4.50 | Joint inflammation score (Lewis rats; s.c. daily from Day 1, Day 4): 4.83 | Joint inflammation score (Lewis rats; s.c. daily from Day 1, Day 5): 5.83 | Joint inflammation score (Lewis rats; s.c. daily from Day 1, Day 6): 6.16 | Joint inflammation score (Lewis rats; s.c. daily from Day 1, Day 7): 6.16 | Joint inflammation score (Lewis rats; s.c. daily from Day 1, Day 8): 5.33 | Joint inflammation score (Lewis rats; s.c. daily from Day 1, Day 9): 5.66 | Joint inflammation score (Lewis rats; s.c. daily from Day 1, Day 10): 4.33 | Joint inflammation score (Lewis rats; s.c. daily from Day 1, Day 11): 3.16 | Joint inflammation score (Lewis rats; s.c. daily from Day 1, Day 12): 3.16 | Joint inflammation score (Lewis rats; s.c. daily from Day 1, Day 13): 2.16 | Joint inflammation score (Lewis rats; s.c. daily from Day 1, Day 14): 3.33 | Joint inflammation score (Lewis rats; s.c. daily from Day 1, Day 15): 3.00 | Joint inflammation score (Lewis rats; s.c. daily from Day 1, Day 16): 1.66 | Joint inflammation score (Lewis rats; s.c. daily from Day 1, Day 17): 1.50 | Total Bone Mineral Density (mean ± SEM) [4]: 517.56 ± 9.67 mg/mL | Trabecular Bone Mineral Density (mean ± SEM) [4]: 321.16 ± 9.04 mg/mL | mean uterine weight ± SEM [5]: 10.7 ± 0.9 mg | mean uterine weight ± SEM [6]: 80.7 ± 5.3 mg
